Laboratory results from patent US6872562B2, “Herbicide resistant dinitrogen fixing bacteria and method of use” (priority 2001, dated 2005).

Test system: cultivar TV5866RR
Test: Growth cabinet: nitrogenase activity (relative ARA) under soil-water deficits
Format: in vivo, soybean (Glycine max)
Method: Plants were established in flow-through pots (Purcell et al., 1997) for nondestructive measurement of acetylene-reduction activity (ARA) as an indicator of relative nitrogenase activity. Pots were constructed of 10-cm-diameter, 40-cm-long polyvinyl chloride pipe, sealed at the bottom and top with end caps. Fittings were inserted into the bottom for drainage and introduction of air samples during ARA measurements, and into the top for air exhaust and sampling. Pot tare weights were recorded prior to adding potting mixture. Potting media and nutrients were the same as described in Examples 1-3. […] After allowing excess water to drain for 12 h, pot capacity weights were recorded. […]
ARA was measured beginning 28 DAE by introducing a 9:1 air to acetylene mixture at 0.5 L min^−1 into the bottom of the pots that were sealed around the plant root system. […] Ethylene concentration in the gas samples was quantified by gas chromatography using a flame ionization detector and a Porapak N column (de Silva et al., 1996). […] Ethylene concentrations were expressed as μmol C2H4 plant^−1h^−1, and means within an experiment and sample date were compared using standard errors. […]
Soil-water data were converted from pot capacity weight to fraction of the transpirable soil water (FTSW) (de Silva et al., 1996). […] Soil weight at zero transpirable water was determined to be 0.24 of the soil weight at pot capacity. […]

`O=C(O)CNCP(=O)(O)O` [glyphosate, N-(phosphonomethyl)glycine] was tested, and the “Sensitivity of ARA to water deficits vs untreated plants” value (in vivo) was “more sensitive” and the “Nitrogenase activity, % of the well-watered control” value (water-deficit plants at FTSW of 0.21, 1.68 kg ha^−1 on 5, 12, and 19 DAE) was 71%.
